# Reference: ChEMBL document CHEMBL1156829 (Proc Natl Acad Sci U S A, 2008)
# Tests used:
# [1] = system: Plasmodium falciparum; assay: NOVARTIS: Inhibition of Plasmodium falciparum 3D7 (drug-susceptible) proliferation in erythrocyte-based infection assay; assay type: functional, organism-based; conditions: Plasmodium falciparum, 3D7
# [2] = NOVARTIS: Cytotoxicity against human hepatocellular carcinoma cell line (Huh7); assay type: toxicity, cell-based, Huh-7; conditions: Huh7 cells (hepatocellular carcinoma cell line)
# [3] = system: Plasmodium falciparum; assay: NOVARTIS: Inhibition of Plasmodium falciparum W2 (drug-resistant) proliferation in erythrocyte-based infection assay; assay type: functional, organism-based; conditions: Plasmodium falciparum, W2; read-out: EC50
SMILES,EC50 [1],CC50 [2],EC50 [3]
Cc1cccc(NC(=O)c2cc(Cl)nc3ccccc23)c1,3670 nM,> 100000 nM,1940 nM
O=C(C[n+]1ccc(/C=N/O)cc1)NC12CC3CC(CC(C3)C1)C2,> 12500 nM,42200 nM,3070 nM
Cn1nc(C(F)(F)F)c(C(=O)Nc2cccc(C(F)(F)F)c2)c1SCc1ccc(Cl)cc1,1010 nM,31300 nM,1200 nM
Nc1ncc(Br)cc1S(=O)(=O)NCCC(=O)N1CC=C(c2ccccc2)CC1,384 nM,48900 nM,1020 nM
CCOc1cc2c(cc1OCC)C(c1cc(Cl)ccc1O)NCC2 (stereo not given),404 nM,24200 nM,96.4 nM
COc1ccc(OC)c(-c2ccc(C(=O)N3CCN(CC=Cc4ccccc4)CC3)c(N(C)C)n2)c1,94.6 nM,32800 nM,145 nM
O=C(NCCc1ccccc1)C(=O)NN=Cc1ccccc1,> 1250 nM,> 10000 nM,> 82 nM
Cc1ccc(-c2c[n+](Cc3cccc(C)c3)c3n2CCC3)cc1,568 nM,20600 nM,493 nM
Cc1nonc1C(=O)NN=Cc1ccc([N+](=O)[O-])o1,1730 nM,49300 nM,420 nM
CCOC(=O)c1ccc(N2C(=O)c3[nH]nc(C)c3C2c2ccccc2OC)cc1 (stereo not given),610 nM,> 10000 nM,> 655 nM
CCN(CC)CCN1C(=O)c2ccccc2NC1c1ccc(Cl)cc1 (stereo not given),370 nM,53300 nM,455 nM
O=[N+]([O-])c1ccc(S(=O)(=O)N2CCN(C(=S)NCC3CCCO3)CC2)cc1 (stereo not given),136 nM,> 100000 nM,101 nM
CC(C)(C)CC(C)(C)Nc1c(-c2ccccc2OC(=O)c2ccc(Cl)cc2Cl)nc2ccccn12,279 nM,> 10000 nM,10.3 nM
COc1ccc(CN(C)C(C)C)cc1OC1CCN(C(=O)C2CCC2)CC1,> 11200 nM,> 100000 nM,> 10000 nM
Cc1cccc(C2c3[nH]c4ccccc4c3CCN2C(=O)CCCN2CCCCC2=O)n1 (stereo not given),> 12500 nM,> 100000 nM,3770 nM
CCCCOc1ccc(C(=O)N(C)CCCNc2ccnc3cc(Cl)ccc23)cc1,605 nM,4790 nM,69 nM
Cc1c(Cl)cccc1NC(=S)N(CCCN(C)c1ccccc1)Cc1cccn1Cc1ccc(Cl)cc1,> 7300 nM,> 100000 nM,> 10000 nM
CC(C)Nc1nc(-c2cccnc2)nc2ccccc12,> 829 nM,> 10000 nM,> 955 nM
COc1ccc(C2CC(=O)C3=C(C2)NC(C)=C(C(=O)OC2CCCC2)C3c2cccc(C)c2)cc1OC (stereo not given),300 nM,14900 nM,208 nM
CCN(CC)CCCC(C)Nc1cc(/C=C/c2ccc([N+](=O)[O-])cc2)nc2ccc(OC)cc12 (stereo not given),743 nM,> 6250 nM,1300 nM
COc1ccc(CCNc2nc(NCCC3CCCN3C)ncc2C(=O)NCc2ccccc2)cc1OC (stereo not given),1060 nM,> 10000 nM,> 802 nM
CCCN(CCC)C(=O)Cn1ccc(=N)c2ccccc21,1200 nM,> 100000 nM,671 nM
CCCOc1ncnc2c1sc1nc3c(cc12)COC(C)(C)C3,> 967 nM,> 10000 nM,> 936 nM
CCOc1ccc2[nH]c(=O)c(C(c3nnnn3CCOC)N3CCCC3)cc2c1 (stereo not given),> 12500 nM,> 100000 nM,1050 nM
COc1ccc(C(C)=O)cc1N1C(=O)C2C(C1=O)C1(c3ccccc3)C(=O)C2(c2ccccc2)C(c2ccc(C)cc2)=C1c1ccc(C)cc1 (stereo not given),2460 nM,> 100000 nM,1800 nM

SMILES,EC50 [1],CC50 [2],EC50 [3]
COc1ccc2c(C)nc(Nc3nc(C)cc(-c4ccccc4)n3)nc2c1,341 nM,> 100000 nM,1160 nM
O=C(Nc1cc(Oc2ccc(F)cc2)cc([N+](=O)[O-])c1)c1nc2nc(-c3ccccc3)cc(C(F)(F)F)n2n1,> 12500 nM,> 100000 nM,3110 nM
CC1CN(C(=O)c2sc3cccc(F)c3c2Cl)CC(C)O1 (stereo not given),299 nM,> 100000 nM,232 nM
Cc1ccn2c(NC(C)(C)CC(C)(C)C)c(-c3ccccc3OC(=O)c3ccccc3Br)nc2c1,760 nM,> 10000 nM,117 nM
CCC1CCCCN1S(=O)(=O)c1cc(Br)cc2c1N(C(=O)C1CC1)CC2 (stereo not given),2840 nM,> 100000 nM,448 nM
CCCn1c(=N)c(C(=O)NC(C)c2ccccc2)cc2c(=O)n3cccc(C)c3nc21 (stereo not given),1650 nM,> 100000 nM,3530 nM
C=C[C@H]1CN2CC[C@H]1C[C@H]2[C@H](OC(=O)c1ccc(Cl)cc1)c1ccnc2ccccc12,412 nM,> 10000 nM,564 nM
CCc1n(CC(=O)OC2CC(C)CCC2C(C)C)c2ccccc2[n+]1C (stereo not given),267 nM,29900 nM,203 nM
CC1CCN(C(=O)CSc2nc(NCc3ccccc3)c3ccccc3n2)CC1,673 nM,> 10000 nM,> 1580 nM
CC(C)(C)c1ccc(C=CC(=O)NCc2ccco2)cc1,623 nM,1140 nM,322 nM
COc1cccc(C(=O)NC(c2ccccc2OC)c2cc(Cl)c3cccnc3c2O)c1 (stereo not given),1200 nM,> 100000 nM,1150 nM
CC[n+]1c(C=Cc2ccc(OC)cc2)ccc2ccccc21,690 nM,10300 nM,1480 nM
COc1ccc(Nc2nc(Nc3ccc(OC)cc3)c3[nH]ccc3n2)cc1,667 nM,> 10000 nM,678 nM
C=CC1CN2CCC1CC2C(O)c1ccnc2ccc(OC)cc12 (stereo not given),11.8 nM,82500 nM,54.2 nM
CC(C)CN(C(C)C(=O)NC(CN1CCCC1)c1ccccc1)S(=O)(=O)Cc1ccccc1 (stereo not given),60.2 nM,> 10000 nM,76.7 nM
CCC(C)(C)c1ccc(OCCOCC[n+]2ccccc2)c(C(C)(C)CC)c1,960 nM,12200 nM,844 nM
CSC1=C(C#N)C(c2ccc(O)cc2)CC(=O)N1 (stereo not given),> 9510 nM,> 100000 nM,3280 nM
COc1ccc(-c2c[n+](CC(=O)c3ccccc3Cl)c3n2CCC3)cc1,1070 nM,> 100000 nM,1290 nM
CC(=O)N(C1=C(N2CCCCCC2)C(=O)c2ccccc2C1=O)C1CCCCC1,137 nM,30200 nM,93.9 nM
COc1ccc(C=CC(=O)NC(=O)c2ccccc2O)cc1OC,1290 nM,> 100000 nM,1390 nM
COc1ccc(N(CC(=O)Nc2cc(OC)ccc2OC)S(=O)(=O)c2ccc(C)cc2)cc1,> 1250 nM,> 10000 nM,> 583 nM
COc1ccc(C2CC(=O)C3=C(C2)NC(C)=C(C(=O)OC2CCCC2)C3c2ccc(SC)cc2)cc1OC (stereo not given),249 nM,> 100000 nM,36.5 nM
Cc1ccc(CNC(=O)CSc2nc3ccsc3c(=O)n2CCCCCC(=O)NCCc2ccccc2)cc1,4430 nM,> 100000 nM,2720 nM
Cc1nc2c(c(C)nn2C)c(C)c1CCC(=O)N1CCCC1,360 nM,> 6850 nM,< 15.8 nM
CN1CCN=C1c1ccc(NC(=O)Nc2ccc(NC(=O)Nc3ccc(C4=NCCN4C)cc3)cc2)cc1,158 nM,> 10000 nM,124 nM
